Results reported in patent US20110130390A1, “Use of COX-2 Inhibitors for the Treatment of Schizophrenia, Delusional Disorders, Affective Disorders, Autism or Tic Disorders” (priority 2001, published 2011).

Assays:
[1] = tested on: DBA/2Ola mice; experiment: Forced swim test; assay type: in vivo
Source text: Various behavioral test paradigms have been developed for evaluating the antidepressant properties of novel drugs in animals. One of the most reliable and specific paradigm is the forced swim test which has been successfully used to determine the effectiveness of antidepressants, evaluate new pharmaceutical compounds and validate animal models of depression (Porsolt et al. (1977) Arch. Int. Pharmacodym. 229:327-336; Porsolt (2000) Rev. Neurosci. 11:53-58; Rénńric et al. (2002)Behav. Brain Res. 136:521-532; Page et al. (2003) Psychopharmacology 165:194-201; Kelliher et al. (2003) Psychoneuroendocrinology 28:332-347). The test consists of placing a mouse for a period of 5 minutes into a glass cylinder containing a water depth of at least 15 cm. Under such circumstances, a mouse cannot touch the bottom of the cylinder and is thus forced to swim. Time, latency and frequency of struggling/swimming versus floating are scored as behavioral parameters. Floating (i.e. movements made only for keeping balance and breath) can be interpreted as a depression-like behavior that reflects either a failure of persistent escape-directed behavior (i.e. behavioral despair) or the development of passive behavior that disengages the animal from active forms of coping with stress stimuli. By contrast, increased struggling (i.e. vigorous attempts to escape) and swimming indicates active coping behavior and can be interpreted as an opposite to depression-like behavior.
The antidepressant activity of rofecoxib was assessed in animals according to the forced swim test. Briefly, rofecoxib was given orally by gavage to mice either in a single acute administration of 10 mg or in a repetitive chronic administration of 4 mg per day (2 mg at 9:00 in the morning, 2 mg at 18:00 in the evening) for 28 days. Control animals received a negative control consisting of water only. The forced swim test was performed 4 hour after the last administration of rofecoxib. […] All observed results were confirmed statistically using the one-way ANOVA test.
(§1) The antidepressant activity of valdecoxib was assessed in DBA/2Ola mice according to the forced swim test. Briefly, chronic administration of valdecoxib was performed by oral gavage for 28 days at a concentration of 4 mg per day (2 mg at 9:00 in the morning, 2 mg at 18:00 in the evening) and 20 mg per day (10 mg at 9:00 in the morning, 10 mg at 18:00 in the evening). Control animals received a placebo consisting of water only. The behavior of individual animals was assessed using the forced swim test 24 hours after the last administration of valdecoxib. A pre-exposure of 5 minutes to the test was done 4 hours after the last administration of valdecoxib. All observed results were confirmed statistically using the one-way ANOVA test.
as §1, with “etoricoxib” for “valdecoxib”, “DBA/201a” for “DBA/2Ola”, “etoricoxib” for “chronic administration of valdecoxib”, “chronically administered to mice” for “performed”, “etoricoxib.” for “valdecoxib.”
The antidepressant activity of the COX-2 inhibitor Cimicoxib was assessed in DBA/2Ola mice using the forced swim test. Briefly, chronic administration of cimicoxib was performed by oral gavage to mice for 28 days at a concentration of 2 or 10 mg per kg bodyweight per day (1 or 5 mg at 9:00 in the morning, 1 or 5 mg at 18:00 in the evening). Control animals received a placebo consisting of water only. […]

[2] = assay type: in vivo, human; details: FIG. 4
[3] = tested on: depressed patients; experiment: Hamilton-Depression scale, 17-item version (HamD), celecoxib add-on to reboxetine trial; assay type: in vivo, human; details: 400 mg/day add-on to reboxetine, 6 weeks; ANOVA, Greenhouse-Geisser-corrected F=3.220; df 2.434; p=0.035; FIG. 10
Experimental: The psychopathology of the patients was assessed by raters, who had undergone a training program, using the Hamilton-Depression scale, 17-item version (HamD), 24 Assessment of psychopathology and other examinations were performed at weekly intervals.
For statistics, analysis of variance was used for the HamD scale. The degrees of freedom for the within-subjects comparisons were corrected for deviance from sphericity (Greenhouse-Geisser). Post-hoc t tests were used for the weekly comparison of HamD scores. An intent to treat analysis was performed using the “last observation carried forward” (LOCF) procedure.

[4] = tested on: schizophrenic patients
Experimental: The psychopathology of the patients was assessed using the positive and negative syndrome scale (PANSS) (Kay et al., Schizophr. Bull. 1987, 13: 261-276). […] The statistics were performed according to the criterion of “last observation carried forward” (LOCF), i.e., the last PANSS scores of the patients who dropped out before the end of the study were carried forward to all subsequent observation days. For the comparison of the main efficacy parameter, the mean change in the PANSS between the two treatment groups, t-tests for independent samples were employed. […] For all other comparisons, two-tailed t-tests were used.

[5] = tested on: depressed patients; experiment: Drop-outs and side-effects in the celecoxib add-on to reboxetine trial; details: celecoxib 400 mg/day add-on to reboxetine, n = 20
[6] = chronic oral 4 mg per day for 28 days, test 4 hour after the last administration, FIG. 6
[7] = single acute oral administration of 10 mg, test 4 hour after administration, FIG. 6
[8] = chronic oral gavage 28 days, 2 or 10 mg per kg bodyweight per day, test 4 hours after the last administration, FIG. 9
[9] = chronic oral gavage 28 days, 4 mg per day and 20 mg per day, test 24 hours after the last administration

Molecule: rofecoxib
- floating time [1, 6]: decreasing
- struggling or swimming times [1, 6]: statistically increased
- floating time [1, 7]: decreasing
- struggling or swimming times [1, 7]: statistically increased

Molecule: Cc1nc2n(c(=O)c1CCN1CCC(c3noc4cc(F)ccc34)CC1)CCCC2O (centres unmarked) [9-OH-risperidone]
- differences in the plasma levels between risperidone-celecoxib and risperidone-placebo treatment [2]: without statistical significance

Molecule: Cc1nc2n(c(=O)c1CCN1CCC(c3noc4cc(F)ccc34)CC1)CCCC2 [risperidone]
- differences in the plasma levels between risperidone-celecoxib and risperidone-placebo treatment [2]: without statistical significance

Molecule: COc1ccc(-c2c(Cl)ncn2-c2ccc(S(N)(=O)=O)cc2)cc1F [cimicoxib]
- floating time [1, 8]: decrease
- struggling or swimming times [1, 8]: statistically significant increase

Molecule: Cc1ccc(-c2cc(C(F)(F)F)nn2-c2ccc(S(N)(=O)=O)cc2)cc1 [celecoxib]
- comparison of HamD scores during therapy with celecoxib or placebo [3]: advantage of celecoxib-group
- PANSS items lack of contact, emotional isolation, passive-apathic isolation, social withdrawal, depression, motor retardation ([4]; analysis of items discriminating good celecoxib-responders from the placebo group): therapeutic effects
- PANSS items subsumed under the label agitation ([4]; factor analysis, not seen with placebo): good therapeutic response
- cardiovascular events or side-effects, clinically and by ECG surveillance [5]: no cardiovascular events or side-effects were observed
- patients excluded or refusing further treatment due to a lack of therapeutic efficacy [5]: Five

Molecule: etoricoxib
- floating time [1, 9]: decreasing
- struggling or swimming times [1, 9]: statistically increased or showed a tendency to increase

Molecule: Cc1onc(-c2ccccc2)c1-c1ccc(S(N)(=O)=O)cc1 [valdecoxib]
- floating time [1, 9]: decreasing
- struggling or swimming times [1, 9]: statistically increased
